In patent US11505617B2, “Benzodiazepine derivatives” (IMMUNOGEN, INC., priority 2009, dated 2022):
Where two headings read alike, the source gives them in different places.

B1: huN901-IGN03 (conjugate, chains of the INN, looked up)
VH: QVQLVESGGGVVQPGRSLRLSCAASGFTFSSFGMHWVRQAPGKGLEWVAYISSGSFTIYYADSVKGRFTISRDNSKNTLYLQMNSLRAEDTAVYYCARMRKGYAMDYWGQGTLVTVSS
VL: DVVMTQSPLSLPVTLGQPASISCRSSQIIIHSDGNTYLEWFQQRPGQSPRRLIYKVSNRFSGVPDRFSGSGSGTDFTLKISRVEAEDVGVYYCFQGSHVPHTFGQGTKVEIK
modifications: IGN03 indolinobenzodiazepine payload

Key:
Ramos cells = assay: In vitro cytotoxicity, Ramos cells; type: cell-based; details: Homo sapiens, read-out: IC50, in vitro antiproliferative activity
Text: (§1) The in vitro cytotoxicity of the cytotoxic compounds (e.g., indolinobenzodiazepine or oxazolidinobenzodiazepine), derivatives thereof, dimers thereof or conjugates thereof of the present invention can be evaluated for their ability to suppress proliferation of various cancerous cell lines in vitro (Tables 1, 2 in FIGS. 31, 32.). For example, cell lines such as the human breast carcinoma line SK-Br-3, or the human epidermoid carcinoma cell line KB, can be used for the assessment of cytotoxicity of these new compounds. Cells to be evaluated can be exposed to the compounds for 72 hours and the surviving fractions of cells measured in direct assays by known methods. IC50 values can then be calculated from the results of the assays.
(§2) Conjugates of cell-binding agents with cytotoxic agents of the invention can be evaluated for their ability to suppress proliferation of various unwanted cell lines in vitro. For example, cell lines such as the human colon carcinoma line COLO 205, the rhabdomyosarcoma cell line RH-30, and the multiple myeloma cell line MOLP-8 can be used for the assessment of cytotoxicity of these conjugates. Cells to be evaluated can be exposed to the compounds for 1-5 days and the surviving fractions of cells measured in direct assays by known methods. IC50 values can then be calculated from the results of the assays.
General Procedure Used: Samples of IGN Free Drugs or IGN Conjugates were added to 96-well flat bottomed tissue culture plates and titrated using serial dilutions to cover the desired molar range. Antigen positive (Ag+) or Antigen negative (Ag−) cells were added to the wells in specific cell densities in such a way that there were triplicate samples for each drug concentration for each corresponding cell line. The plates were then incubated at 37° C. in an atmosphere of 5% CO2 for 4-5 days depending on the cell line. COLO 205 (1,000 cells/well), Namalwa (3,000 cells/well)—4 days; RH30(1,000 cells/well), Ramos (10,000 cells/well), KB (1,000 cells/well)—5 days)
(§3) At the end of the incubation period cytotoxic potencies were then assessed using a WST-based cell viability assay and surviving cells were measured by developing with WST (2-7 hours). The absorbance in each well was measured and the surviving fraction of cells at each concentration was plotted to reveal the cytotoxicity and antigen specificity (of the conjugates).

[1] = tested on: single stranded DNA (ssDNA); assay: DNA probe assay control with single stranded DNA; type: binding; details: control experiments
Description: (§4) Reaction conditions: dsDNA ([…] final concentration) in 100 mM TRIS, 1 mM EDTA, pH 8 was mixed with 3.7 molar equivalents of IGN-01 (compound 18), IGN-02 (compound 19), or IGN-09 (compound 15) dissolved in acetonitrile (final acetonitrile concentration <2% by volume). The reaction was incubated at 15° C. (below TM of the dsDNA) and 10 μl aliquots are injected on reverse phase-HPLC at various time points after mixing
(§5) HPLC conditions: Waters Xbridge C8 2.1×50 mm column, Buffer A: 100 mM hexafluoroisopropanol, 16.3 mM triethylamine, in water, Buffer B: Methanol; 98% A→100% B over 32 min, 0.25 ml/min flow, 60° C. column heat, 260 nm detection. Areas under the curve (AUC) for the probe DNA peak and the resulting IGN/DNA adduct peak are used to determine the % crosslinking at each time point of incubation.
(§6) DNA annealing: single stranded DNA (Invitrogen) was annealed into dsDNA using a Peltier thermal cycler (PTC-200, MJ Research). 1 mM DNA in 100 mM TRIS, 1 mM EDTA pH 8 was heated to 80° C. and then gradually cooled to 4° C. over 90 min in 15 degree steps. The resulting dsDNA was kept at 4° C. until used in the assay.

[2] = tested on: double stranded DNA (dsDNA); assay: DNA probe assay for IGN dimer binding and alkylation to double stranded DNA; details: for binding and covalent adduct formation with double stranded DNA: dsDNA containing guanine residues on opposite strands
Description: as §4, §5, §6

COLO205-MDR = assay: In vitro cytotoxicity, multi-drug resistant COLO 205 MDR cells; type: cell-based, human; details: free compound; multi-drug resistant line vs COLO205
Text: as §1
Conjugates of cell-binding agents with cytotoxic agents of the invention can be evaluated for their ability to suppress proliferation of various unwanted cell lines in vitro. […] Cells to be evaluated can be exposed to the compounds for 1-5 days and the surviving fractions of cells measured in direct assays by known methods. IC50 values can then be calculated from the results of the assays. […]
At the end of the incubation period cytotoxic potencies were then assessed using a WST-based cell viability assay and surviving cells were measured by developing with WST (2-7 hours). […]

RH30 cells = assay: In vitro cytotoxicity of conjugates, RH30 cells; type: cell-based, human
Text: as §2
General Procedure Used: Samples of IGN Free Drugs or IGN Conjugates were added to 96-well flat bottomed tissue culture plates and titrated using serial dilutions to cover the desired molar range. Antigen positive (Ag+) or Antigen negative (Ag−) cells were added to the wells in specific cell densities in such a way that there were triplicate samples for each drug concentration for each corresponding cell line. […]
as §3

| Molecule | IC50 (Ramos cells; Ramos) [pM] | covalent adduct formation with single stranded DNA [1] | binding and covalent adduct formation with double stranded DNA [2] | also measured |
| --- | --- | --- | --- | --- |
| COC(=O)CCCCOc1cc(COc2cc3c(cc2OC)C(=O)N2c4ccccc4C[C@H]2C=N3)cc(COc2cc3c(cc2OC)C(=O)N2c4ccccc4C[C@H]2C=N3)c1 [IGN03] | < 1 |  |  |  |
| COC(=O)COc1cc(COc2cc3c(cc2OC)C(=O)N2c4ccccc4C[C@H]2C=N3)cc(COc2cc3c(cc2OC)C(=O)N2c4ccccc4C[C@H]2C=N3)c1 [IGN05] | < 1 |  |  |  |
| COc1cc2c(cc1OCc1cccc(COc3cc4c(cc3OC)C(=O)N3c5ccccc5C[C@H]3C=N4)c1)N=C[C@@H]1Cc3ccccc3N1C2=O [IGN-01] |  | did not form covalent adducts | bind and covalently adduct | IC50 (Ramos cells; free compounds with and without linker, Ramos cell line (Table 2)): < 1 pM; rate of DNA binding, dependence on DNA sequence ([2]; DNA with internal GATC motif vs GTAC sequence): binds faster to DNA containing an internal GATC motif; reaction with DNA probe substituted with deoxyInosine in place of guanine ([2]; probe containing no C-2 amino group): no reaction |
| COc1cc2c(cc1OCc1cccc(COc3cc4c(cc3OC)C(=O)N3COC[C@H]3C=N4)c1)N=C[C@@H]1COCN1C2=O [IGN-02] |  | did not form covalent adducts | bind and covalently adduct |  |
| COc1cc2c(cc1OCCCOc1cc3c(cc1OC)C(=O)N1c4ccccc4C[C@H]1C=N3)N=C[C@@H]1Cc3ccccc3N1C2=O [IGN-09] | < 1 | did not form covalent adducts | bind and covalently adduct | fold higher IC50 on COLO205-MDR than COLO205 (COLO205-MDR): 4 fold |
| B1 |  |  |  | IC50 (RH30 cells; RH30 cells with an excess of unconjugated huN901 antibody): > 3000 pM; IC50 (RH30 cells; antigen positive RH30 cells): 15 pM |
